Publication PMC13266999, “Designing Antibiotics with Inherent Resistance to Efflux as a Strategy to Revive Discovery against Multidrug-Resistant Pathogens” (Journal of Medicinal Chemistry, 2026)
Values after ≈ are worked out from the molar mass of the structure shown. Like-named read-outs stand apart in the source and are kept apart here.

Tested on: S. aureus
Assay: MIC (microbroth dilution)
Assay type: cell-based, Staphylococcus aureus
Details: Staphylococcus aureus
Protocol: All bacteria were maintained on tryptic soy agar (TSA), except Streptococcus spp., which were maintained on Columbia agar plates containing 5% horse blood. […] Bacteria were grown to stationary phase in liquid culture overnight, with shaking at 200 rpm, before being back diluted to the relevant starting concentration for each assay below. MICs were measured by the microbroth dilution method. […] Absorbance at OD600 was read on a CLARIOstar spectrophotometer (BMG Labtech) and the MIC was defined as the minimum concentration of compound where no visible growth was detected. […] MICs were also performed in the presence of the outer membrane permeator, polymyxin b nonapeptide (PMBN) following the same MIC method but with the following variation. The 2-fold dilution series of compound was prepared as above, then 50 μL of PMBN at a final concentration of 30 μg/mL was added to relevant wells, while 50 μL/well of blank media was added to the remaining wells. Bacteria were then added at 50 μL/well for a starting concentration as above. […] The MICs were read and defined as above. All animal procedures were performed by the contract research organization Pharmacology Discovery Services Taiwan in accordance with the Guide for the Care and Use of Laboratory Animals. The procedures were approved by the Institutional Ethics Committee of Pharmacology Discovery Services Taiwan, Ltd. (approval no. AB127662), in compliance with animal welfare legislation in Taiwan.

[1] = ATCC9144, ATCC 9144, read-out: MIC
[2] = NCTC13277, NCTC 13277, read-out: MIC
[3] = NCTC13616, NCTC 13616, read-out: MIC

| SMILES | MIC [1] | MIC [2] | MIC [3] | MIC (SA-1199, read-out: MIC) | MIC (SA-1199B (NorA-overexpressing)) |
| --- | --- | --- | --- | --- | --- |
| CCn1cc(C(=O)O)c(=O)c2cc(F)c(N3CCN(Cc4cccc5c4CCCC5)CC3)cc21 [Compound 30, 1-Ethyl-6-fluoro-4-oxo-7-(4-((5,6,7,8-tetrahydronaphthalen-1-yl)methyl)piperazin-1-yl)-1,4-dihydroquinoline-3-carboxylic acid] | 1 µg/mL (≈ 2.16 µM) | 2 µg/mL (≈ 4.31 µM) | 2 µg/mL (≈ 4.31 µM) | 0.25 µg/mL (≈ 0.539 µM) | 0.5 µg/mL (≈ 1.08 µM) |
| CN(C)c1ccc(CN2CCN(c3cc4c(cc3F)c(=O)c(C(=O)O)cn4C3CC3)CC2)cc1 [Compound 31, 1-Cyclopropyl-7-(4-(4-(dimethylamino)benzyl)piperazin-1-yl)-6-fluoro-4-oxo-1,4-dihydroquinoline-3-carboxylic acid] | 0.06 to 0.125 µg/mL (≈ 0.129 to 0.269 µM) | 16 to 32 µg/mL (≈ 34.4 to 68.9 µM) | 8 to 16 µg/mL (≈ 17.2 to 34.4 µM) | 0.125 µg/mL (≈ 0.269 µM) | 0.25 µg/mL (≈ 0.538 µM) |
| CCn1cc(C(=O)O)c(=O)c2cc(F)c(N3CCN(Cc4ccc(N(C)C)cc4)CC3)cc21 [Compound 32, 7-(4-(4-(Dimethylamino)benzyl)piperazin-1-yl)-1-ethyl-6-fluoro-4-oxo-1,4-dihydroquinoline-3-carboxylic acid] | 0.125 to 0.25 µg/mL (≈ 0.276 to 0.552 µM) | > 32 µg/mL | 16 to 32 µg/mL (≈ 35.4 to 70.7 µM) | – | – |
| CCn1cc(C(=O)O)c(=O)c2cc(F)c(N3CCN(Cc4cccc5c4OCO5)CC3)cc21 [Compound 34, 7-(4-(Benzo[d][1,3]dioxol-4-ylmethyl)piperazin-1-yl)-1-ethyl-6-fluoro-4-oxo-1,4-dihydroquinoline-3-carboxylic acid] | 0.5 µg/mL (≈ 1.1 µM) | > 32 µg/mL | > 32 µg/mL | – | – |
| O=C(O)c1cn(C2CC2)c2cc(N3CCN(Cc4ccc(F)c5ccccc45)CC3)c(F)cc2c1=O [Compound 35, 1-Cyclopropyl-6-fluoro-7-(4-((4-fluoronaphthalen-1-yl)methyl)piperazin-1-yl)-4-oxo-1,4-dihydroquinoline-3-carboxylic acid] | 4 µg/mL (≈ 8.17 µM) | 8 µg/mL (≈ 16.3 µM) | 4 µg/mL (≈ 8.17 µM) | – | – |
| CCn1cc(C(=O)O)c(=O)c2cc(F)c(N3CCN(Cc4ccc(F)c5ccccc45)CC3)cc21 [Compound 36, 1-Ethyl-6-fluoro-7-(4-((4-fluoronaphthalen-1-yl)methyl)piperazin-1-yl)-4-oxo-1,4-dihydroquinoline-3-carboxylic acid] | 8 µg/mL (≈ 16.8 µM) | 8 µg/mL (≈ 16.8 µM) | 8 µg/mL (≈ 16.8 µM) | – | – |
| O=C(O)c1cn(C2CC2)c2cc(N3CCN(Cc4cccc5ccsc45)CC3)c(F)cc2c1=O [Compound 37, 7-(4-(Benzo[b]thiophen-7-ylmethyl)piperazin-1-yl)-1-cyclopropyl-6-fluoro-4-oxo-1,4-dihydroquinoline-3-carboxylic acid] | < 0.125 µg/mL | 2 µg/mL (≈ 4.19 µM) | 2 µg/mL (≈ 4.19 µM) | – | – |
| CCn1cc(C(=O)O)c(=O)c2cc(F)c(N3CCN(Cc4cccc5ccsc45)CC3)cc21 [Compound 38, 7-(4-(Benzo[b]thiophen-7-ylmethyl)piperazin-1-yl)-1-ethyl-6-fluoro-4-oxo-1,4-dihydroquinoline-3-carboxylic acid] | 0.25 µg/mL (≈ 0.537 µM) | 2 µg/mL (≈ 4.3 µM) | 2 µg/mL (≈ 4.3 µM) | – | – |
| O=C(O)c1cn(C2CC2)c2cc(N3CCN(Cc4ccc(-c5ccccc5)cc4)CC3)c(F)cc2c1=O [Compound 39, 7-(4-([1,1’-Biphenyl]-4-ylmethyl)piperazin-1-yl)-1-cyclopropyl-6-fluoro-4-oxo-1,4-dihydroquinoline-3-carboxylic acid] | 1 µg/mL (≈ 2.01 µM) | 2 µg/mL (≈ 4.02 µM) | 2 µg/mL (≈ 4.02 µM) | – | – |
| CCn1cc(C(=O)O)c(=O)c2cc(F)c(N3CCN(Cc4ccc(-c5ccccc5)cc4)CC3)cc21 [Compound 40, 7-(4-([1,1’-Biphenyl]-4-ylmethyl)piperazin-1-yl)-1-ethyl-6-fluoro-4-oxo-1,4-dihydroquinoline-3-carboxylic acid] | 2 µg/mL (≈ 4.12 µM) | 4 µg/mL (≈ 8.24 µM) | 2 µg/mL (≈ 4.12 µM) | – | – |
